From publication PMC7377239, “Cardiovascular Effects of Polychlorinated Biphenyls and Their Major Metabolites” (Environmental Health Perspectives, 2020)
Read-outs that look alike come from different tables or passages of the source.

Experiments:
[1] = tested on: iCell cardiomyocytes (human iPSC-derived cardiomyocytes); experiment: High-content imaging of cytotoxicity and mitochondrial integrity in iPSC-CMs; type: cell-based; conditions: Homo sapiens; for viability at 0.01 µM / activity at 0.01 µM / viability at 0.1 µM / activity at 0.1 µM / viability at 1 µM / activity at 1 µM / viability at 10 µM / activity at 10 µM / viability at 100 µM / activity at 100 µM: Cardiomyocyte, 0.00 µM = 100.00; for viability at 0.1 µM / activity at 0.1 µM: 0.10 µM; for minimal effective concentration: iPSC-CM
In short: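 Human iPSC-derived cardiomyocytes were seeded on gelatin-coated 384-well plates at 5,000 cells per well and maintained for 12 d. Test chemicals were added as 10μL of 5× solutions to final concentrations of 0.01 to 100μM. Cells were stained with Hoechst 33342 and MitoTracker™ Orange, fixed in formaldehyde, and imaged by confocal high-content microscopy at 10× magnification.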

HUVECs = experiment: High-content imaging cytotoxicity in HUVECs, 24 h; type: cell-based, human; conditions: Homo sapiens, HUVEC, 24 h, HUVECs; for viability at 0.01 µM / activity at 0.01 µM / viability at 0.1 µM / activity at 0.1 µM / viability at 1 µM / activity at 1 µM / viability at 10 µM / activity at 10 µM / viability at 100 µM / activity at 100 µM: 0.00 µM = 100.00; for viability at 0.1 µM / activity at 0.1 µM: 0.10 µM; for minimal effective concentration: top concentration 100.00 µM
In short: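 HUVECs (passages 1–5) were plated at 750 cells/well without fibronectin, grown to a monolayer (3–5 d) and exposed to compounds for 24 h at 37°C, 5% CO2. Hoechst 33342, MitoTracker Orange and calcein AM staining was imaged at 10×; readouts were normalized to 0.5% DMSO vehicle and fit to a four-parameter logistic model.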

[2] = 24 hr, read-out: huvec.cyto.24hr
[3] = 24 hr, read-out: huvec.mito.24hr
[4] = 24 hr, read-out: huvec.mitoint.24hr
[5] = 24 hr, read-out: huvec.nma.24hr
[6] = 24 hrs, read-out: huvec.tc.24hrs

Q: Which viability at 0.01 µM ([1]; 1.5 h, read-out: cm.cam.90min) does the source give for `Clc1cccc(-c2cccc(Cl)c2)c1` [PCB11] here?
A: 99%

Q: And the activity at 0.01 µM ([1]; 1.5 h, read-out: cm.mii.90min)?
A: 116%

Q: And the activity at 0.01 µM ([1]; 1.5 h, read-out: cm.mito.90min)?
A: 99.1%

Q: What about the viability at 0.01 µM ([1]; 1.5 h, read-out: cm.tc.90min) of the same compound?
A: 99%

Q: And the viability at 0.1 µM ([1]; 1.5 h, read-out: cm.cam.90min)?
A: 97.7%

Q: What about the activity at 0.1 µM ([1]; 1.5 h, read-out: cm.mii.90min) of the same compound?
A: 102%

Q: And the activity at 0.1 µM ([1]; 1.5 h, read-out: cm.mito.90min)?
A: 97.7%

Q: What about the viability at 0.1 µM ([1]; 1.5 h, read-out: cm.tc.90min) of the same compound?
A: 97.7%

Q: What about the viability at 1 µM ([1]; 1.5 h, read-out: cm.cam.90min) of the same compound?
A: 101%

Q: What about the activity at 1 µM ([1]; 1.5 h, read-out: cm.mii.90min) of the same compound?
A: 98.3%

Q: And the activity at 1 µM ([1]; 1.5 h, read-out: cm.mito.90min)?
A: 101%

Q: What about the viability at 1 µM ([1]; 1.5 h, read-out: cm.tc.90min) of the same compound?
A: 101%

Q: And the viability at 10 µM ([1]; 1.5 h, read-out: cm.cam.90min)?
A: 99.5%

Q: And the activity at 10 µM ([1]; 1.5 h, read-out: cm.mii.90min)?
A: 105%

Q: And the activity at 10 µM ([1]; 1.5 h, read-out: cm.mito.90min)?
A: 99.5%

Q: And the viability at 10 µM ([1]; 1.5 h, read-out: cm.tc.90min)?
A: 99.3%

Q: And the viability at 100 µM ([1]; 1.5 h, read-out: cm.cam.90min)?
A: 1.03%

Q: What about the activity at 100 µM ([1]; 1.5 h, read-out: cm.mii.90min) of the same compound?
A: 152%

Q: And the activity at 100 µM ([1]; 1.5 h, read-out: cm.mito.90min)?
A: 0.83%

Q: What about the viability at 100 µM ([1]; 1.5 h, read-out: cm.tc.90min) of the same compound?
A: 1.06%

Q: What about the viability at 0.01 µM ([1]; 24 h, read-out: cm.cam.24hrs) of the same compound?
A: 103%

Q: And the activity at 0.01 µM ([1]; 24 h, read-out: cm.mii.24hrs)?
A: 93.5%

Q: What about the activity at 0.01 µM ([1]; 24 h, read-out: cm.mito.24hrs) of the same compound?
A: 102%

Q: What about the viability at 0.01 µM ([1]; 24 h, read-out: cm.tc.24hrs) of the same compound?
A: 102%

Q: What about the viability at 0.1 µM ([1]; 24 h, read-out: cm.cam.24hrs) of the same compound?
A: 99.5%

Q: What about the activity at 0.1 µM ([1]; 24 h, read-out: cm.mii.24hrs) of the same compound?
A: 93%

Q: What about the activity at 0.1 µM ([1]; 24 h, read-out: cm.mito.24hrs) of the same compound?
A: 98.7%

Q: What about the viability at 0.1 µM ([1]; 24 h, read-out: cm.tc.24hrs) of the same compound?
A: 99.3%

Q: What about the viability at 1 µM ([1]; 24 h, read-out: cm.cam.24hrs) of the same compound?
A: 101%

Q: What about the activity at 1 µM ([1]; 24 h, read-out: cm.mii.24hrs) of the same compound?
A: 93.7%

Q: And the activity at 1 µM ([1]; 24 h, read-out: cm.mito.24hrs)?
A: 98.5%

Q: What about the viability at 1 µM ([1]; 24 h, read-out: cm.tc.24hrs) of the same compound?
A: 101%

Q: What about the viability at 10 µM ([1]; 24 h, read-out: cm.cam.24hrs) of the same compound?
A: 103%

Q: What about the activity at 10 µM ([1]; 24 h, read-out: cm.mii.24hrs) of the same compound?
A: 85.7%

Q: And the activity at 10 µM ([1]; 24 h, read-out: cm.mito.24hrs)?
A: 102%

Q: What about the viability at 10 µM ([1]; 24 h, read-out: cm.tc.24hrs) of the same compound?
A: 103%

Q: And the viability at 100 µM ([1]; 24 h, read-out: cm.cam.24hrs)?
A: 0.64%

Q: And the activity at 100 µM ([1]; 24 h, read-out: cm.mii.24hrs)?
A: 31.3%

Q: What about the activity at 100 µM ([1]; 24 h, read-out: cm.mito.24hrs) of the same compound?
A: 0.24%

Q: And the viability at 100 µM ([1]; 24 h, read-out: cm.tc.24hrs)?
A: 0.62%

Q: What about the minimal effective concentration ([1]; 1.5 h, read-out: cm.cam.90min POD) of the same compound?
A: 18.6 µM

Q: What about the minimal effective concentration ([1]; 1.5 h, read-out: cm.mii.90min POD) of the same compound?
A: 12.4 µM

Q: And the minimal effective concentration ([1]; 1.5 h, read-out: cm.mito.90min POD)?
A: 14.2 µM

Q: And the minimal effective concentration ([1]; 1.5 h, read-out: cm.tc.90min POD)?
A: 16.7 µM

Q: And the minimal effective concentration ([1]; 24 h, read-out: cm.cam.24hrs POD)?
A: 35.2 µM

Q: What about the minimal effective concentration ([1]; 24 h, read-out: cm.mii.24hrs POD) of the same compound?
A: 9.6 µM

Q: And the minimal effective concentration ([1]; 24 h, read-out: cm.mito.24hrs POD)?
A: 33.1 µM

Q: What about the minimal effective concentration ([1]; 24 h, read-out: cm.tc.24hrs POD) of the same compound?
A: 35.1 µM

Q: And the viability at 0.01 µM (HUVECs; [2])?
A: 91.9%

Q: What about the activity at 0.01 µM (HUVECs; [3]) of the same compound?
A: 90.9%

Q: And the activity at 0.01 µM (HUVECs; [4])?
A: 90.3%

Q: And the activity at 0.01 µM (HUVECs; [5])?
A: 99.1%

Q: And the viability at 0.1 µM (HUVECs; [2])?
A: 99.2%

Q: And the activity at 0.1 µM (HUVECs; [3])?
A: 97.8%

Q: What about the activity at 0.1 µM (HUVECs; [4]) of the same compound?
A: 99.8%

Q: And the activity at 0.1 µM (HUVECs; [5])?
A: 99.1%

Q: And the viability at 1 µM (HUVECs; [2])?
A: 96.6%

Q: And the activity at 1 µM (HUVECs; [3])?
A: 96.2%

Q: And the activity at 1 µM (HUVECs; [4])?
A: 95.2%

Q: What about the activity at 1 µM (HUVECs; [5]) of the same compound?
A: 98.1%

Q: What about the viability at 10 µM (HUVECs; [2]) of the same compound?
A: 95%

Q: What about the activity at 10 µM (HUVECs; [3]) of the same compound?
A: 93.9%

Q: And the activity at 10 µM (HUVECs; [4])?
A: 89.1%

Q: What about the activity at 10 µM (HUVECs; [5]) of the same compound?
A: 96.6%

Q: And the viability at 100 µM (HUVECs; [2])?
A: 44.7%

Q: What about the activity at 100 µM (HUVECs; [3]) of the same compound?
A: 22.1%

Q: What about the activity at 100 µM (HUVECs; [4]) of the same compound?
A: 15.7%

Q: What about the activity at 100 µM (HUVECs; [5]) of the same compound?
A: 54.9%

Q: What about the minimal effective concentration (HUVECs; 24 hr, read-out: huvec.cyto.24hr POD) of the same compound?
A: 11.2 µM

Q: What about the minimal effective concentration (HUVECs; 24 hr, read-out: huvec.mito.24hr POD) of the same compound?
A: 9.68 µM

Q: And the minimal effective concentration (HUVECs; 24 hr, read-out: huvec.mitoint.24hr POD)?
A: 7.62 µM

Q: And the minimal effective concentration (HUVECs; 24 hr, read-out: huvec.nma.24hr POD)?
A: 9.3 µM

Q: What about the viability at 0.01 µM (HUVECs; [6]) of the same compound?
A: 91.9%

Q: What about the viability at 0.1 µM (HUVECs; [6]) of the same compound?
A: 99.2%

Q: What about the viability at 1 µM (HUVECs; [6]) of the same compound?
A: 96.6%

Q: What about the viability at 10 µM (HUVECs; [6]) of the same compound?
A: 95%

Q: And the viability at 100 µM (HUVECs; [6])?
A: 44.9%

Q: What about the minimal effective concentration (HUVECs; 24 hrs, read-out: huvec.tc.24hrs POD) of the same compound?
A: 11.2 µM
